Measured values taken from US11247965B2 (VenatoRx Pharmaceuticals, Inc., priority 2017, dated 2022).

How the values were obtained:
[1] = test system: HBV replication in HepAD38 cells; assay: Anti-HBV activity in HepAD38 cells, extracellular HBV DNA by QPCR; type: cell-based, HBV (genotype D, serotype ayw); details: Hepatitis B virus, HePAD38, 168 h, read-out: Anti-HBV EC50, HepAD38 cells, extracellular HBV DNA by QPCR, 7 days of incubation
Procedure, shortened: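 Seven-day compound exposure (30 μM down to 10 nM, half-log steps) after tetracycline withdrawal induced HBV replication in HepAD38 cells. Extracellular viral DNA measured by QPCR (copies/mL via standard curve), normalised to DMSO wells; EC50 from 4-parameter non-linear regression.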

[2] = In vitro cytotoxicity, MTT cell viability assay in HepG2 cells; type: cell-based; details: human, Cytotoxicity CC50
Procedure, shortened: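 Using MTT conversion as the viability measure, HepG2 cells were incubated with compounds for 7 days (30 μM to 1.0 nM). Absorbance at 492 nm was normalized to vehicle and fitted to give CC50.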

Row | Compound | EC50 [1] [µM] | CC50 at 7 days [2] [µM]
1 | Cc1cc(NC(=O)c2ccc(F)c(C(F)(F)C(=O)N3[C@@H]4COC[C@H]3CN(S(N)(=O)=O)C4)c2)ccc1F [Example 266, 3-(1,1-difluoro-2-oxo-2-((1R,5S)-7-sulfamoyl-3-oxa-7,9-diazabicyclo[3.3.1]nonan-9-yl)ethyl)-4-fluoro-N-(4-fluoro-3-methylphenyl)benzamide] | < 5 | > 30
2 | Cc1cc(NC(=O)c2ccc(F)c(C(F)(F)C(=O)N3CCC(N4CCOCC4)CC3)c2)ccc1F [Example 267, 3-(1,1-difluoro-2-(4-morpholinopiperidin-1-yl)-2-oxoethyl)-4-fluoro-N-(4-fluoro-3-methylphenyl)benzamide] | 5 to 30 | 5 to 30
3 | Cc1cc(NC(=O)c2ccnc(C(F)(F)C(=O)N3CCc4nc(N)sc4C3)c2)ccc1F [Example 268, 2-(2-(2-amino-6,7-dihydrothiazolo[5,4-c]pyridin-5(4H)-yl)-1,1-difluoro-2-oxoethyl)-N-(4-fluoro-3-methylphenyl)isonicotinamide] | 5 to 30 | > 30
4 | Cc1cc(NC(=O)c2ccc(F)c(C(F)(F)C(=O)N3CCC4(CC3)NC(=O)NC4=O)c2)ccc1F [Example 269, 3-(2-(2,4-dioxo-1,3,8-triazaspiro[4.5]decan-8-yl)-1,1-difluoro-2-oxoethyl)-4-fluoro-N-(4-fluoro-3-methylphenyl)benzamide] | < 5 | > 30
5 | Cc1cc(NC(=O)c2ccc(F)c(C(F)(F)C(=O)N3CCc4[nH]nnc4C3)c2)ccc1F [Example 270, 3-(1,1-difluoro-2-oxo-2-(1,4,6,7-tetrahydro-5H-[1,2,3]-triazolo[4,5-c]pyridin-5-yl)ethyl)-4-fluoro-N-(4-fluoro-3-methylphenyl)benzamide] | < 5 | 5 to 30
6 | Cc1cc(NC(=O)c2ccc(F)c(C(F)(F)C(=O)NC34CC5CC(CC3C5)C4)c2)ccc1F [Example 271, 3-(1,1-difluoro-2-(((2R,3as,5S,6as)-hexahydro-2,5-methanopentalen-3a(1H)-yl)amino)-2-oxoethyl)-4-fluoro-N-(4-fluoro-3-methylphenyl)benzamide] | 5 to 30 | 5 to 30
7 | Cc1cc(NC(=O)c2ccc(F)c(C(F)(F)C(=O)NC34CC5CC(CC(O)(C5)C3)C4)c2)ccc1F [Example 272, 3-(1,1-difluoro-2-(((1r,3s,5R,7S)-3-hydroxyadamantan-1-yl)amino)-2-oxoethyl)-4-fluoro-N-(4-fluoro-3-methylphenyl)benzamide] | 5 to 30 | 5 to 30
8 | Cc1cc(NC(=O)c2ccc(F)c(C(F)(F)C(=O)N3C4COCC3CC(=NO)C4)c2)ccc1F [Example 273, 3-(1,1-difluoro-2-(7-(hydroxyimino)-3-oxa-9-azabicyclo[3.3.1]nonan-9-yl)-2-oxoethyl)-4-fluoro-N-(4-fluoro-3-methylphenyl)benzamide] | < 5 | 5 to 30
9 | Cc1cc(NC(=O)c2ccc(F)c(C(F)(F)C(=O)N3[C@@H]4CC[C@H]3CC(O)(CN)C4)c2)ccc1F (stereo partly drawn) [Example 276, 3-(2-((1R,5S)-3-(aminomethyl)-3-hydroxy-8-azabicyclo[3.2.1]octan-8-yl)-1,1-difluoro-2-oxoethyl)-4-fluoro-N-(4-fluoro-3-methylphenyl)benzamide] | < 5 | 5 to 30
10 | CO[C@H]1CC2CC[C@H](C1)N2C(=O)C(F)(F)c1cc(C(=O)Nc2ccc(F)c(C)c2)ccc1F [Example 277, 3-(1,1-difluoro-2-((1R,3s,5S)-3-methoxy-8-azabicyclo[3.2.1]octan-8-yl)-2-oxoethyl)-4-fluoro-N-(4-fluoro-3-methylphenyl)benzamide] | < 5 | 5 to 30
11 | Cc1cc(NC(=O)c2ccc(F)c(C(F)(F)C(=O)N3CCC(F)(F)CC3)c2)ccc1F [Example 278, 3-(2-(4,4-difluoropiperidin-1-yl)-1,1-difluoro-2-oxoethyl)-4-fluoro-N-(4-fluoro-3-methylphenyl)benzamide] | 5 to 30 | > 30
12 | Nc1nc2c(s1)CN(C(=O)C(F)(F)c1cc(C(=O)Nc3ccc(F)c(Cl)c3)ccc1F)CC2 [Example 279, 3-(2-(2-amino-6,7-dihydrothiazolo[5,4-c]pyridin-5(4H)-yl)-1,1-difluoro-2-oxoethyl)-N-(3-chloro-4-fluorophenyl)-4-fluorobenzamide] | < 5 | 5 to 30
13 | Cc1cc(NC(=O)c2ccc(F)c(C(F)(F)C(=O)N3C[C@H]4CC[C@@H](C3)C4=O)c2)ccc1F [Example 280, 3-(1,1-difluoro-2-oxo-2-((1R,5S)-8-oxo-3-azabicyclo[3.2.1]octan-3-yl)ethyl)-4-fluoro-N-(4-fluoro-3-methylphenyl)benzamide] | < 5 | 5 to 30
14 | Cc1cc(NC(=O)c2ccc(F)c(C(F)(F)C(=O)N3CC4CCC(C3)C4O)c2)ccc1F [Example 281, 3-(1,1-difluoro-2-((1R,5S,8s)-8-hydroxy-3-azabicyclo[3.2.1]octan-3-yl)-2-oxoethyl)-4-fluoro-N-(4-fluoro-3-methylphenyl)benzamide] | < 5 | 5 to 30
15 | Cc1cc(NC(=O)c2ccnc(C(F)(F)C(=O)N3[C@@H]4CC[C@H]3C[C@H](C(=O)O)C4)c2)ccc1F [Example 282, (1R,3s,5S)-8-(2,2-difluoro-2-(4-((4-fluoro-3-methylphenyl)carbamoyl)pyridin-2-yl)acetyl)-8-azabicyclo[3.2.1]octane-3-carboxylic acid] | 5 to 30 | > 30
16 | Cc1cc(NC(=O)c2ccc(F)c(C(F)(F)C(=O)N3CC4CNCC4C3)c2)ccc1F (stereo not shown) [Example 283, 3-(1,1-difluoro-2-(hexahydropyrrolo[3,4-c]pyrrol-2(1H)-yl)-2-oxoethyl)-4-fluoro-N-(4-fluoro-3-methylphenyl)benzamide] | < 5 | 5 to 30
17 | CNC(=O)NCC(=O)N1CC2CN(C(=O)C(F)(F)c3cc(C(=O)Nc4ccc(F)c(C)c4)ccc3F)CC2C1 (stereo not shown) [Example 284, 3-(1,1-difluoro-2-(5-((methylcarbamoyl)glycyl)hexahydropyrrolo[3,4-c]pyrrol-2(1H)-yl)-2-oxoethyl)-4-fluoro-N-(4-fluoro-3-methylphenyl)benzamide] | 5 to 30 | > 30
18 | Cc1cc(NC(=O)c2ccc(F)c(C(F)(F)C(=O)N3CCC(N)C(C)(C)C3)c2)ccc1F (stereo not shown) [Example 285, 3-(2-(4-amino-3,3-dimethylpiperidin-1-yl)-1,1-difluoro-2-oxoethyl)-4-fluoro-N-(4-fluoro-3-methylphenyl)benzamide] | < 5 | 5 to 30
19 | Cc1cc(NC(=O)c2ccc(F)c(C(F)(F)C(=O)N3CCC(NS(C)(=O)=O)C(C)(C)C3)c2)ccc1F (stereo not shown) [Example 286, 3-(2-(3,3-dimethyl-4-(methylsulfonamido)piperidin-1-yl)-1,1-difluoro-2-oxoethyl)-4-fluoro-N-(4-fluoro-3-methylphenyl)benzamide] | < 5 | 5 to 30
20 | CC(=O)NC1CCN(C(=O)C(F)(F)c2cc(C(=O)Nc3ccc(F)c(C)c3)ccc2F)CC1(C)C (stereo not shown) [Example 287, 3-(2-(4-acetamido-3,3-dimethylpiperidin-1-yl)-1,1-difluoro-2-oxoethyl)-4-fluoro-N-(4-fluoro-3-methylphenyl)benzamide] | < 5 | 5 to 30
